In US8354441B2, “Oxazoline derivatives” (Hoffmann-La Roche Inc., priority 2009, dated 2013):

Columns and labels:
mouse TAAR1 = molecular target: T1, mouse TAAR1 (Mus musculus, UniProt Q923Y8); assay: TAAR1 radioligand binding with [3H]-rac-2-(1,2,3,4-tetrahydro-1-naphthyl)-2-imidazoline, membranes of stably transfected HEK293 cells; settings: first value of the cell, read-out: Ki (μM) mouse/rat: mouse
T1 construct: expressed in transfected cells; host or cells: HEK293 (ATCC # CRL-1573), stably transfected with pIRESneo2 expression plasmid
Protocol: (§1) For the construction of expression plasmids the coding sequences of human, rat and mouse TAAR 1 were amplified from genomic DNA essentially as described by Lindemann et al.. The Expand High Fidelity PCR System (Roche Diagnostics) was used with 1.5 mM Mg^2+ and purified PCR products were cloned into pCR2.1-TOPO cloning vector (Invitrogen) following the instructions of the manufacturer. PCR products were subcloned into the pIRESneo2 vector (BD Clontech, Palo Alto, Calif.), and expression vectors were sequence verified before introduction in cell lines.
(§2) HEK293 cells (ATCC # CRL-1573) were cultured essentially as described by Lindemann et al. (2005). For the generation of stably transfected cell lines HEK293 cells were transfected with the pIRESneo2 expression plasmids containing the TAAR coding sequences (described above) with Lipofectamine 2000 (Invitrogen) according to the instructions of the manufacturer, and 24 hrs post transfection the culture medium was supplemented with 1 mg/ml G418 (Sigma, Buchs, Switzerland). After a culture period of about 10 d clones were isolated, expanded and tested for responsiveness to trace amines (all compounds purchased from Sigma) with the cAMP Biotrak Enzyme immunoassay (EIA) System (Amersham) following the non-acetylation EIA procedure provided by the manufacturer.
(§3) Cells at confluence were rinsed with ice-cold phosphate buffered saline without Ca^2+ and Mg^2+ containing 10 mM EDTA and pelleted by centrifugation at 1000 rpm for 5 min at 4° C. The pellet was then washed twice with ice-cold phosphate buffered saline and the cell pellet was frozen immediately by immersion in liquid nitrogen and stored until use at −80° C. The cell pellet was then suspended in 20 ml HEPES-NaOH (20 mM), pH 7.4 containing 10 mM EDTA, and homogenized with a Polytron (PT 3000, Kinematica) at 10,000 rpm for 10 s. The homogenate was centrifuged at 48,000×g for 30 min at 4° C. and the pellet resuspended in 20 ml HEPES-NaOH (20 mM), pH 7.4 containing 0.1 mM EDTA (buffer A), and homogenized with a Polytron at 10,000 rpm for 10 s. The homogenate was then centrifuged at 48,000×g for 30 min at 4° C. and the pellet resuspended in 20 ml buffer A, and homogenized with a Polytron at 10,000 rpm for 10 s. Protein concentration was determined by the method of Pierce (Rockford, Ill.). The homogenate was then centrifuged at 48,000×g for 10 min at 4° C., resuspended in HEPES-NaOH (20 mM), pH 7.0 including MgCl2 (10 mM) and […] homogenized with a Polytron at 10,000 rpm for 10 s.
(§4) The binding assay was performed at 4° C. in a final volume of 1 ml, and with an incubation time of 30 min. The radioligand [^3H]-rac-2-(1,2,3,4-tetrahydro-1-naphthyl)-2-imidazoline was used at a concentration equal to the calculated Kd value of 60 nM to give a bound at around 0.1% of the total added radioligand concentration, and a specific binding which represented approximately 70-80% of the total binding. Non-specific binding was defined as the amount of [^3H]-rac-2-(1,2,3,4-tetrahydro-1-naphthyl)-2-imidazoline bound in the presence of the appropriate unlabelled ligand (10 μM). Competing ligands were tested in a wide range of concentrations (10 pM-30 μM). […] Each experiment was performed in duplicate. All incubations were terminated by rapid filtration through UniFilter-96 plates (Packard Instrument Company) and glass filter GF/C, pre-soaked for at least 2 h in polyethylenimine 0.3%, and using a Filtermate 96 Cell Harvester (Packard Instrument Company). The tubes and filters were then washed 3 times with 1 ml aliquots of cold buffer B. Filters were not dried and soaked in Ultima gold (45 μl/well, Packard Instrument Company) and bound radioactivity was counted by a TopCount Microplate Scintillation Counter (Packard Instrument Company).

rat TAAR1 = molecular target: T2, rat TAAR1 (Rattus norvegicus, UniProt Q923Y9); assay: as above; settings: second value of the cell, read-out: Ki (μM) mouse/rat: rat
T2 construct: expressed in transfected cells; host or cells: HEK293 (ATCC # CRL-1573), stably transfected with pIRESneo2 expression plasmid
Protocol: as §1, §2, §3, §4

T2 sequence (Q923Y9 whole entry): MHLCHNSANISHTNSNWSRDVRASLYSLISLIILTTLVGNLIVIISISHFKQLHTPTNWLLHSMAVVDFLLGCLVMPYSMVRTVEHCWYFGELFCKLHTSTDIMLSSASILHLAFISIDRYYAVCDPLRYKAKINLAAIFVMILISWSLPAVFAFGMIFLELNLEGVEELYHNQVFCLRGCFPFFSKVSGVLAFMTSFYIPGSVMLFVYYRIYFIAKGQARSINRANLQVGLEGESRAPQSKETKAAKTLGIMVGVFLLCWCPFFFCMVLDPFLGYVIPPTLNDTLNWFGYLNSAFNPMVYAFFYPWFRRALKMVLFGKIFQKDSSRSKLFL
T1 sequence (Q923Y8 whole entry): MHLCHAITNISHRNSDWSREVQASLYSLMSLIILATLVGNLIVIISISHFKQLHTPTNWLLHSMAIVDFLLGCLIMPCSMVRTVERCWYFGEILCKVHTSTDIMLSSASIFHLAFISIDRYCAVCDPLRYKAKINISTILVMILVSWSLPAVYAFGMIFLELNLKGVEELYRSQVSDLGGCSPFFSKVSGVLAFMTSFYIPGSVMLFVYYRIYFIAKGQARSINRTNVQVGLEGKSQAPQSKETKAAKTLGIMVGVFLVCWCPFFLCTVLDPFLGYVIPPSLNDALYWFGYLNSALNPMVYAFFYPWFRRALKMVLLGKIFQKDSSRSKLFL

Ki (mouse TAAR1) [µM] | Ki (rat TAAR1) [µM] | SMILES
0.0006 | 0.001 | NC1=N[C@@H](CCc2ccc(NC(=O)c3ccc(Cl)cn3)cc2)CO1 [Example 33, 5-Chloro-pyridine-2-carboxylic acid {4-[2-((S)-2-amino-4,5-dihydro-oxazol-4-yl)-ethyl]-phenyl}-amide]
0.0041 | 0.004 | COc1cc(C(=O)Nc2ccc(CC[C@H]3COC(N)=N3)cc2)nc(OC)n1 [Example 190, (S)-N-(4-(2-(2-Amino-4,5-dihydrooxazol-4-yl)ethyl)phenyl)-2,6-dimethoxypyrimidine-4-carboxamide]
0.001 | 0.0006 | CCOc1ccc(C(=O)Nc2ccc(CC[C@H]3COC(N)=N3)cc2)cc1 [Example 60, N-{4-[2-((S)-2-Amino-4,5-dihydro-oxazol-4-yl)-ethyl]-phenyl}-4-ethoxy-benzamide]
0.0008 | 0.0018 | CC(C)c1sc(N(C)C)nc1C(=O)Nc1ccc(CC[C@H]2COC(N)=N2)cc1 [Example 189, (S)-N-(4-(2-(2-Amino-4,5-dihydrooxazol-4-yl)ethyl)phenyl)-2-(dimethylamino)-5-isopropylthiazole-4-carboxamide]
0.0047 | 0.0018 | NC1=N[C@@H](CCc2ccc(NC(=O)c3cncc(Cl)n3)cc2)CO1 [Example 160, (S)-N-(4-(2-(2-Amino-4,5-dihydrooxazol-4-yl)ethyl)phenyl)-6-chloropyrazine-2-carboxamide]
0.0015 | 0.0044 | N#Cc1ccc(C(=O)Nc2ccc(CC[C@H]3COC(N)=N3)cc2)nc1 [Example 119, (S)-N-(4-(2-(2-Amino-4,5-dihydrooxazol-4-yl)ethyl)phenyl)-5-cyanopicolinamide]
0.0035 | 0.0014 | NC1=N[C@@H](CCc2ccc(NC(=O)C3CC(F)(F)C3)cc2)CO1 [Example 44, 3,3-Difluoro-cyclobutanecarboxylic acid {4-[2-((S)-2-amino-4,5-dihydro-oxazol-4-yl)-ethyl]-phenyl}-amide]
0.0057 | 0.0018 | NC1=N[C@@H](CCc2ccc(NC(=O)c3ncc(F)cc3F)cc2)CO1 [Example 87, 3,5-Difluoro-pyridine-2-carboxylic acid {4-[2-((S)-2-amino-4,5-dihydro-oxazol-4-yl)-ethyl]-phenyl}-amide]
0.0022 | 0.0006 | NC1=N[C@@H](CCc2ccc(NC(=O)c3nc4ccccc4[nH]3)cc2)CO1 [Example 86, 1H-Benzoimidazole-2-carboxylic acid {4-[2-((S)-2-amino-4,5-dihydro-oxazol-4-yl)-ethyl]-phenyl}-amide]
0.0002 | 0.0004 | NC1=N[C@@H](CCc2ccc(NC(=O)c3ccc(Cl)cc3)cc2)CO1 [Example 9, N-{4-[2-((S)-2-Amino-4,5-dihydro-oxazol-4-yl)-ethyl]-phenyl}-4-chloro-benzamide]
0.0014 | 0.0014 | NC1=N[C@@H](CCc2ccc(NC(=O)c3ccnc(Cl)c3)cc2)CO1 [Example 173, (S)-N-(4-(2-(2-Amino-4,5-dihydrooxazol-4-yl)ethyl)phenyl)-2-chloroisonicotinamide]
0.0007 | 0.002 | NC1=N[C@@H](CCc2ccc(NC(=O)c3cnc(Cl)cn3)cc2)CO1 [Example 126, (S)-N-(4-(2-(2-Amino-4,5-dihydrooxazol-4-yl)ethyl)phenyl)-5-chloropyrazine-2-carboxamide]
0.0068 | 0.0019 | Cc1ccc(C(=O)Nc2ccc(CC[C@H]3COC(N)=N3)cc2)cn1 [Example 98, N-{4-[2-((S)-2-Amino-4,5-dihydro-oxazol-4-yl)-ethyl]-phenyl}-6-methyl-nicotinamide]
0.0018 | 0.0001 | C#Cc1ccc(NC(=O)c2ccc(CC[C@H]3COC(N)=N3)cc2)cc1 [Example 145, (S)-4-(2-(2-amino-4,5-dihydrooxazol-4-yl)ethyl)-N-(4-ethynylphenyl)benzamide]
0.0063 | 0.0022 | COc1cnc(C(=O)Nc2ccc(CC[C@H]3COC(N)=N3)cc2)cn1 [Example 127, (S)-N-(4-(2-(2-Amino-4,5-dihydrooxazol-4-yl)ethyl)phenyl)-5-methoxypyrazine-2-carboxamide]

The remaining lines, values behind:

SMILES | Ki (mouse TAAR1) [µM] | Ki (rat TAAR1) [µM]
C#Cc1ccc(NC(=O)c2ccc(CC[C@H]3COC(N)=N3)cc2)nc1 [Example 152, (S)-4-(2-(2-Amino-4,5-dihydrooxazol-4-yl)ethyl)-N-(5-ethynylpyridine-2-yl)benzamide] | 0.008 | 0.0002
NC1=N[C@@H](CCc2ccc(NC(=O)Nc3ncc(Cl)cn3)cc2)CO1 [Example 151, 1-{4-[2-((S)-2-Amino-4,5-dihydro-oxazol-4-yl)-ethyl]-phenyl}-3-(5-chloro-pyrimidin-2-yl)-urea] | 0.0071 | 0.0028
COC(C(=O)Nc1ccc(CC[C@H]2COC(N)=N2)cc1)c1ccc(Br)cc1 (stereo partly drawn) [Example 73, N-{4-[2-((S)-2-Amino-4,5-dihydro-oxazol-4-yl)-ethyl]-phenyl}-2-(4-bromo-phenyl)-2-methoxy-acetamide] | 0.0026 | 0.0049
NC1=N[C@@H](CCc2ccc(N3Cc4ccc(Cl)cc4C3=O)cc2)CO1 [Example 186, 2-{4-[2-((S)-2-Amino-4,5-dihydro-oxazol-4-yl)-ethyl]-phenyl}-6-chloro-2,3-dihydro-isoindol-1-one] | 0.0029 | 0.001
NC1=N[C@@H](CCc2ccc(NC(=O)c3ccnc(-c4ccncc4)c3)cc2)CO1 [Example 199, (S)-N-(4-(2-(2-Amino-4,5-dihydrooxazol-4-yl)ethyl)phenyl)-2,4′-bipyridine-4-carboxamide] | 0.0027 | 0.0037
NC1=N[C@@H](CCc2ccc(NC(=O)Cc3ccc(Cl)cc3)cc2)CO1 [Example 70, N-{4-[2-((S)-2-Amino-4,5-dihydro-oxazol-4-yl)-ethyl]-phenyl}-2-(4-chloro-phenyl)-acetamide] | 0.001 | 0.001
Cc1ocnc1C(=O)Nc1ccc(CC[C@@H]2N=C(N)O[C@H]2C)cc1 [Example 222, 5-Methyl-oxazole-4-carboxylic acid {4-[2-((4S,5S)-2-amino-5-methyl-4,5-dihydro-oxazol-4-yl)-ethyl]-phenyl}-amide] | 0.0071 | 0.004
NC1=N[C@@H](CCc2ccc(NC(=O)c3cnc(C(F)(F)F)cn3)cc2)CO1 [Example 159, (S)-N-(4-(2-(2-Amino-4,5-dihydrooxazol-4-yl)ethyl)phenyl)-5-(trifluoromethyl)pyrazine-2-carboxamide] | 0.001 | 0.0024
NC1=NC(c2ccc(NC(=O)Nc3ccc(Cl)cc3)cc2)CO1 (racemic) [Example 1, (RS)-1-[4-(2-Amino-4,5-dihydro-oxazol-4-yl)-phenyl]-3-(4-chloro-phenyl)-urea] | 0.0026 | 0.0005
NC1=N[C@@H](CCc2ccc(NC(=O)c3cnc(C(F)(F)F)nc3C3CC3)cc2)CO1 [Example 209, (S)-N-(4-(2-(2-Amino-4,5-dihydrooxazol-4-yl)ethyl)phenyl)-4-cyclopropyl-2-(trifluoromethyl)pyrimidine-5-carboxamide] | 0.0013 | 0.0035
CC(C(=O)Nc1ccc(CC[C@H]2COC(N)=N2)cc1)c1cccc(OC(F)(F)F)c1 (stereo partly drawn) [Example 82, N-{4-[2-((S)-2-Amino-4,5-dihydro-oxazol-4-yl)-ethyl]-phenyl}-2-(3-trifluoromethoxy-phenyl)-propionamide] | 0.0005 | 0.0017
